Reference: PubChem BioAssay AID1259407 (Chemical Carcinogenesis Research Information System (CCRIS), 2018)
The source made the active and inactive calls. No rule for the calls is given here.

System: CCRIS mutagenicity, Ames/micronucleus/aberration tests
Assay: CCRIS mutagenicity studies
[1] = Test System: AMES SALMONELLA TYPHIMURIUM, Strain/Indicator: TA98, Metabolic Activation: NONE, Method: PREINCUBATION
[2] = Test System: AMES SALMONELLA TYPHIMURIUM, Strain/Indicator: TA98, Metabolic Activation: NONE, Method: STANDARD PLATE
[3] = Test System: AMES SALMONELLA TYPHIMURIUM, Strain/Indicator: TA98, Metabolic Activation: RAT, LIVER, S-9, AROCLOR 1254, Method: STANDARD PLATE
[4] = Test System: AMES SALMONELLA TYPHIMURIUM, Strain/Indicator: TA100, Metabolic Activation: NONE, Method: STANDARD PLATE
[5] = Test System: AMES SALMONELLA TYPHIMURIUM, Strain/Indicator: TA100, Metabolic Activation: RAT, LIVER, S-9, AROCLOR 1254, Method: STANDARD PLATE
[6] = Test System: AMES SALMONELLA TYPHIMURIUM, Strain/Indicator: TA1535, Metabolic Activation: NONE, Method: STANDARD PLATE
[7] = Test System: AMES SALMONELLA TYPHIMURIUM, Strain/Indicator: TA1535, Metabolic Activation: RAT, LIVER, S-9, AROCLOR 1254, Method: STANDARD PLATE
[8] = Test System: AMES SALMONELLA TYPHIMURIUM, Strain/Indicator: TA1537, Metabolic Activation: NONE, Method: STANDARD PLATE
[9] = Test System: AMES SALMONELLA TYPHIMURIUM, Strain/Indicator: TA1537, Metabolic Activation: RAT, LIVER, S-9, AROCLOR 1254, Method: STANDARD PLATE
[10] = Test System: AMES SALMONELLA TYPHIMURIUM, Strain/Indicator: TA1538, Metabolic Activation: NONE, Method: STANDARD PLATE
[11] = Test System: AMES SALMONELLA TYPHIMURIUM, Strain/Indicator: TA1538, Metabolic Activation: RAT, LIVER, S-9, AROCLOR 1254, Method: STANDARD PLATE

CCOC(=O)C1OC1c1ccccc1 (centres undefined)
mutagenic call (Test System: AMES SALMONELLA TYPHIMURIUM, Strain/Indicator: TA98, Metabolic Activation: HAMSTER, LIVER, S-9, AROCLOR 1254 (10%), Method: PREINCUBATION): inactive; negative | mutagenic call [1]: inactive; negative | mutagenic call [2]: inactive; negative | mutagenic call (Test System: AMES SALMONELLA TYPHIMURIUM, Strain/Indicator: TA98, Metabolic Activation: RAT, LIVER, S-9, AROCLOR 1254 (10%), Method: PREINCUBATION): inactive; negative | mutagenic call [3]: inactive; negative | mutagenic call (Test System: AMES SALMONELLA TYPHIMURIUM, Strain/Indicator: TA100, Metabolic Activation: HAMSTER, LIVER, S-9, AROCLOR 1254 (10%), Method: PREINCUBATION): inactive; negative | mutagenic call (Test System: AMES SALMONELLA TYPHIMURIUM, Strain/Indicator: TA100, Metabolic Activation: NONE, Method: PREINCUBATION): inactive; negative | mutagenic call [4]: inactive; negative | mutagenic call (Test System: AMES SALMONELLA TYPHIMURIUM, Strain/Indicator: TA100, Metabolic Activation: RAT, LIVER, S-9, AROCLOR 1254 (10%), Method: PREINCUBATION): inactive; negative | mutagenic call [5]: active; positive | mutagenic call (Test System: AMES SALMONELLA TYPHIMURIUM, Strain/Indicator: TA1535, Metabolic Activation: HAMSTER, LIVER, S-9, AROCLOR 1254 (10%), Method: PREINCUBATION): inactive; negative | mutagenic call (Test System: AMES SALMONELLA TYPHIMURIUM, Strain/Indicator: TA1535, Metabolic Activation: NONE, Method: PREINCUBATION): inactive; negative | mutagenic call [6]: inactive; negative | mutagenic call (Test System: AMES SALMONELLA TYPHIMURIUM, Strain/Indicator: TA1535, Metabolic Activation: RAT, LIVER, S-9, AROCLOR 1254 (10%), Method: PREINCUBATION): inactive; negative | mutagenic call [7]: inactive; negative | mutagenic call (Test System: AMES SALMONELLA TYPHIMURIUM, Strain/Indicator: TA1537, Metabolic Activation: HAMSTER, LIVER, S-9, AROCLOR 1254 (10%), Method: PREINCUBATION): inactive; negative | mutagenic call (Test System: AMES SALMONELLA TYPHIMURIUM, Strain/Indicator: TA1537, Metabolic Activation: NONE, Method: PREINCUBATION): inactive; negative | mutagenic call [8]: inactive; negative | mutagenic call (Test System: AMES SALMONELLA TYPHIMURIUM, Strain/Indicator: TA1537, Metabolic Activation: RAT, LIVER, S-9, AROCLOR 1254 (10%), Method: PREINCUBATION): inactive; negative | mutagenic call [9]: inactive; negative | mutagenic call [10]: inactive; negative | mutagenic call [11]: inactive; negative | mutagenic call (Test System: CHINESE HAMSTER OVARY, Strain/Indicator: CHO-K1-BH4/6-THIOGUANINE, Metabolic Activation: NONE): active; positive | mutagenic call (Test System: CHINESE HAMSTER OVARY, Strain/Indicator: CHO-K1-BH4/6-THIOGUANINE, Metabolic Activation: RAT, LIVER, S-9, AROCLOR 1254): active; positive

Fc1ccccc1-c1ccccc1
mutagenic call (Test System: AMES SALMONELLA TYPHIMURIUM, Strain/Indicator: TA98, Metabolic Activation: HAMSTER, LIVER, S-9, AROCLOR 1254, Method: STANDARD PLATE): inactive; negative | mutagenic call [2]: inactive; negative | mutagenic call [3]: inactive; negative | mutagenic call (Test System: AMES SALMONELLA TYPHIMURIUM, Strain/Indicator: TA100, Metabolic Activation: HAMSTER, LIVER, S-9, AROCLOR 1254, Method: STANDARD PLATE): inactive; negative | mutagenic call [4]: inactive; negative | mutagenic call [5]: inactive; negative | mutagenic call (Test System: AMES SALMONELLA TYPHIMURIUM, Strain/Indicator: TA1535, Metabolic Activation: HAMSTER, LIVER, S-9, AROCLOR 1254, Method: STANDARD PLATE): inactive; negative | mutagenic call [6]: inactive; negative | mutagenic call [7]: inactive; negative | mutagenic call (Test System: AMES SALMONELLA TYPHIMURIUM, Strain/Indicator: TA1537, Metabolic Activation: HAMSTER, LIVER, S-9, AROCLOR 1254, Method: STANDARD PLATE): inactive; negative | mutagenic call [8]: inactive; negative | mutagenic call [9]: inactive; negative | mutagenic call (Test System: AMES SALMONELLA TYPHIMURIUM, Strain/Indicator: TA1538, Metabolic Activation: HAMSTER, LIVER, S-9, AROCLOR 1254, Method: STANDARD PLATE): inactive; negative | mutagenic call [10]: inactive; negative | mutagenic call [11]: inactive; negative | mutagenic call (Test System: Mouse lymphoma, Strain/Indicator: L5178Y (tk+/tk-), Metabolic Activation: None, Method: Suspension/plate): inactive; negative | mutagenic call (Test System: Mouse lymphoma, Strain/Indicator: L5178Y (tk+/tk-), Metabolic Activation: Rat, Liver, S-9, Aroclor 1254, Method: Suspension/plate): inactive; negative

CC(=O)OCc1c2ccccc2cc2ccccc12
mutagenic call [2]: active; positive | mutagenic call [4]: active; positive

c1cc2ccc3ccc4ccc5ccc6ccc1c1c2c3c4c5c61
mutagenic call (Test System: AMES SALMONELLA TYPHIMURIUM, Strain/Indicator: TA97, Metabolic Activation: NONE, Method: STANDARD PLATE): inactive; negative | mutagenic call (Test System: AMES SALMONELLA TYPHIMURIUM, Strain/Indicator: TA97, Metabolic Activation: RAT, LIVER, S-9, PCB, Method: STANDARD PLATE): active; positive | mutagenic call [2]: inactive; negative | mutagenic call (Test System: AMES SALMONELLA TYPHIMURIUM, Strain/Indicator: TA98, Metabolic Activation: RAT, LIVER, S-9, AROCLOR 1254, Method: FLUCTUATION): active; positive | mutagenic call [3]: active; positive | mutagenic call (Test System: AMES SALMONELLA TYPHIMURIUM, Strain/Indicator: TA98, Metabolic Activation: RAT, LIVER, S-9, PCB, Method: STANDARD PLATE): active; positive | mutagenic call [4]: inactive; negative | mutagenic call (Test System: AMES SALMONELLA TYPHIMURIUM, Strain/Indicator: TA100, Metabolic Activation: RAT, LIVER, S-9, PCB, Method: STANDARD PLATE): inactive; negative | mutagenic call [9]: active; positive | mutagenic call [11]: active; positive

C[C@H](CCC(=O)O)[C@H]1CC[C@H]2[C@@H]3C(=O)C[C@@H]4CC(=O)CC[C@]4(C)[C@H]3CC[C@]12C
mutagenic call (Test System: AMES SALMONELLA TYPHIMURIUM, Strain/Indicator: TA98, Metabolic Activation: NONE, Method: FLUCTUATION TEST): inactive; negative | mutagenic call [1]: inactive; negative | mutagenic call (Test System: AMES SALMONELLA TYPHIMURIUM, Strain/Indicator: TA98, Metabolic Activation: RAT, LIVER, S-9, PCB, Method: PREINCUBATION): inactive; negative | mutagenic call (Test System: AMES SALMONELLA TYPHIMURIUM, Strain/Indicator: TA100, Metabolic Activation: NONE, Method: FLUCTUATION TEST): inactive; negative

O=C(O)c1cccc2cccnc12
mutagenic call [2]: inactive; negative | mutagenic call [3]: inactive; negative | mutagenic call [4]: inactive; negative | mutagenic call [5]: inactive; negative | mutagenic call [6]: inactive; negative | mutagenic call [7]: inactive; negative | mutagenic call [8]: inactive; negative | mutagenic call [9]: inactive; negative

C#CC(OC(=O)C1C(C=C(C)C)C1(C)C)/C(C)=C/CC (centres undefined)
mutagenic call (Test System: AMES SALMONELLA TYPHIMURIUM, Strain/Indicator: TA98, Metabolic Activation: NONE, Method: MICROSUSPENSION): inactive; negative | mutagenic call (Test System: AMES SALMONELLA TYPHIMURIUM, Strain/Indicator: TA98, Metabolic Activation: S-9, Method: MICROSUSPENSION): inactive; negative | mutagenic call (Test System: AMES SALMONELLA TYPHIMURIUM, Strain/Indicator: TA100, Metabolic Activation: NONE, Method: MICROSUSPENSION): inactive; negative | mutagenic call (Test System: AMES SALMONELLA TYPHIMURIUM, Strain/Indicator: TA100, Metabolic Activation: S-9, Method: MICROSUSPENSION): inactive; negative
